Measurements: patent US11421194B2, “Pumpless platform for high-throughput dynamic multicellular culture and chemosensitivity evaluation” (Hackensack Meridian Health Center For Discovery and …, priority 2018, dated 2022)

Test system: MM.1S cells
Test: Chemosensitivity evaluation of MM.1S cells to bortezomib in the pumpless culture platform (LIVE/DEAD in situ staining, HCS)
Type: cell-based, human
Details: 4 h treatment, 24 h recovery
Description: The high-throughput capability of the pumpless culture platform was evaluated by studying the response of MM.1S cells to bortezomib at four different concentrations (0 nM, 5 nM, 10 nM, 20 nM). Bortezomib is a proteasome inhibitor that induces MM cell apoptosis.^29 Before introducing MM.1S cells, OSB were dynamically cultured for 4 days (in a CO2 incubator at […]). MM.1S cells were pre-labeled with 5 μM cell trace violet (Thermo Fisher Scientific), 10 μL MM.1S with a cell density of 4 million/ml were seeded into culture chambers ([…]). The device was then placed inside a CO2 incubator at 37° C. for 4 h to let MM.1S settle prior to starting the flow. Cells were co-cultured for another 24 h, and then treated with bortezomib for 4 h. After drug treatment, the medium was changed and cultures were allowed to recover for a 24 h period before analyses were conducted. MM.1S alone, cultured in the device but under static conditions were used as control.
Cell viability after treatment and recovery was determine as described above, using LIVE/DEAD Viability/Cytotoxicity Kit (0.1 μM calcein AM & 0.1 μM EthD-1). Culture chambers were scanned using HCS (CellInsight™ CX5, Thermo Fisher Scientific). Cell trace violet^+ calcein AM^+ cells were identified as live MM.1S and cell trace violet^+ EthD-1^+ cells were identified as dead cells, using pre-design CX5 software algorithms (HCS Studio 2.0 Cell Analysis Software) for cell quantification and rapid analysis.
Data quantification was performed automatically using the HCS Studio Software. The percentage of live (cell trace violet^+ calcein AM^+ cells/cell trace violet^+ cells) and dead (cell trace violet^+EthD-1^+/cell trace violet^+ cells) MM.1S cells were plotted against bortezomib concentration.

CC(C)C[C@H](NC(=O)[C@H](Cc1ccccc1)NC(=O)c1cnccn1)B(O)O [bortezomib]
viability at 0.005 µM (Homo sapiens, MM1.S, MM.1S cultured alone, static, bortezomib 5 nM, read-out: viability (percentage of live MM.1S: cell trace violet+ calcein AM+ cells/cell trace violet+ cells)): ~60% | viability at 0.01 µM (Homo sapiens, MM1.S, MM.1S cultured alone, static, bortezomib 10 nM, read-out: viability (percentage of live MM.1S: cell trace violet+ calcein AM+ cells/cell trace violet+ cells)): ~15% | viability (percentage of live MM.1S: cell trace violet+ calcein AM+ cells/cell trace violet+ cells) (MM.1S in co-culture with OSB (hFOB 1.19), dynamic culture, bortezomib treatment range 0 nM to 10 nM): ~70%
